ChEMBL document CHEMBL5543057, “Hydrophobic tag-based protein degradation: Development, opportunity and challenge” (Eur J Med Chem, 2023)
pIC50: −log10 of the molar value.

Assays:
NCI/ADR-RES = assay: Antiproliferative activity against human MCF7ADR cells assessed as reduction in cell growth measured after 48 hrs by MTT assay; type: functional, cell-based
[1] = biological target: Serine/threonine-protein kinase PLK1 (Homo sapiens, UniProt P53350); assay: Inhibition of PLK1 (unknown origin) (37 to 345 residues) expressed in Escherichia coli BL21 (DE3) incubated for 18 hrs by fluorescence polarization assay
[2] = biological target: Protein cereblon/Bromodomain-containing protein 4 (Homo sapiens, UniProt O60885+Q96SW2); assay: PROTAC activity at CRBN/BRD4 in human MV4-11 cells assessed as induction of degradation of BRD4 measured after 24 hrs by Western blot analysis; type: cell-based
[3] = Clearance in Sprague-Dawley rat at 50 mg/kg, ip measured after 24 hrs by LC-MS/MS analysis; type: ADME, organism-based; conditions: in vivo
[4] = Clearance in Sprague-Dawley rat at 1 mg/kg, iv measured for 24 hrs by LC-MS/MS analysis; type: ADME, organism-based; conditions: in vivo
[5] = Oral bioavailability in Sprague-Dawley rat at 1 mg/kg by LC/MS/MS analysis; type: ADME, organism-based; conditions: in vivo
[6] = Half life in Sprague-Dawley rat at 1 mg/kg, iv measured for 24 hrs by LC-MS/MS analysis; type: ADME, organism-based; conditions: in vivo
[7] = Half life in Sprague-Dawley rat at 50 mg/kg, ip measured for 24 hrs by LC-MS/MS analysis; type: ADME, organism-based; conditions: in vivo
HeLa = assay: Antiproliferative activity against human HeLa cells assessed as reduction in cell viability incubated for 24 hrs by MTT assay; type: functional, cell-based

Sequence of Serine/threonine-protein kinase PLK1 (P53350 whole entry, the tested form may be a part): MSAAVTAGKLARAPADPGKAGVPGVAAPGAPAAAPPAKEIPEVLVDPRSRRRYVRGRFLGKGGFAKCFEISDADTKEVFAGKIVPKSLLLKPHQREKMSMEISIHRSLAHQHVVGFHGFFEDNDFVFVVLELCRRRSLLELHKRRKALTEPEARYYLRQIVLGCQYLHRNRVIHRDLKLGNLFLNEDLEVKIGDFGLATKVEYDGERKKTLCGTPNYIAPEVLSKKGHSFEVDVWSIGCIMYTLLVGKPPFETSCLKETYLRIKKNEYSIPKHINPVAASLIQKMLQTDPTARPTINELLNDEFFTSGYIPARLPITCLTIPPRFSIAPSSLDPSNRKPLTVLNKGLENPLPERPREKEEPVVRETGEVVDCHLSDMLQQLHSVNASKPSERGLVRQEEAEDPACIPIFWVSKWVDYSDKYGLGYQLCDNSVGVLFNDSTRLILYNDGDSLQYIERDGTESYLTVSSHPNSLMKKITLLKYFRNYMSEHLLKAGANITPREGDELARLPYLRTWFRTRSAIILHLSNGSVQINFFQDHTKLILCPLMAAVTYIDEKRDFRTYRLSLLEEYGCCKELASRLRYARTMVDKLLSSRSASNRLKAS
Sequence of Protein cereblon/Bromodomain-containing protein 4 (Q96SW2 whole entry, looked up, other chains not shown): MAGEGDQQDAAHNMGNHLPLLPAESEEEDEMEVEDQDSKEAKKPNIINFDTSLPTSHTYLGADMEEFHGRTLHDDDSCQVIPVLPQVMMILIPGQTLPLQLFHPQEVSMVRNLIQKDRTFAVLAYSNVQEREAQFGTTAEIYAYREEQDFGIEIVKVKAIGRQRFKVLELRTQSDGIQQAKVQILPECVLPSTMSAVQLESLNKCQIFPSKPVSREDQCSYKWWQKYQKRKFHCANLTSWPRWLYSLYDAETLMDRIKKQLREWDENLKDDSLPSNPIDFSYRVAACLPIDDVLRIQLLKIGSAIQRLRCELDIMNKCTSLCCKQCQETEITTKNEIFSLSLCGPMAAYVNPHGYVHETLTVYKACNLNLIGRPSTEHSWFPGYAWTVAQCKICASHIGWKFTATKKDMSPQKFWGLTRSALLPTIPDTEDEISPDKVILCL

Molecule `CC1=CC(=O)[C@H]2/C(C=O)=C\C[C@H]3[C@@H]([C@@H](C)/C=C\C=C/C(=O)OCCOCCOCCOC(=O)CC45CC6CC(CC(C6)C4)C5)CC[C@]3(C)C[C@H]12` has a pIC50 (NCI/ADR-RES) of 6.32.

Work on `CC1=C/C(=N\OC(=O)c2ccc(CNC(=O)CCc3cn(CCCCCCOCCOCCNC(=O)[C@H](C)CCC4C5CC6CC(C5)CC4C6)nn3)cc2C)C(C)=CC1=O` (stereo partly specified) yielded a pIC50 [1] of 4.32.

`CC1=CC(=O)[C@H]2/C(C=O)=C\C[C@H]3[C@@H]([C@@H](C)/C=C\C=C/C(=O)OCCOCCOCCOCCOC(=O)CC45CC6CC(CC(C6)C4)C5)CC[C@]3(C)C[C@H]12` gave a pIC50 (NCI/ADR-RES) of 5.69.

Molecule `CC(C)C[C@H](NC(=O)CCOCCOCCOCCNC(=O)CNC1C2CC3CC(C2)CC1C3)C(=O)N[C@@H](CC(C)C)C(=O)N1CCC[C@H]1C(=O)N1CCC[C@H]1C(=O)N[C@H](C(=O)N[C@@H](CCC(=O)O)C(=O)N[C@@H](CCC(N)=O)C(=O)N[C@@H](CC(=O)O)C(=O)N[C@@H](CC(C)C)C(=O)N[C@@]1(C)CCC/C=C\CCC[C@@](C)(C(=O)N[C@@H](Cc2ccc(O)cc2)C(N)=O)NC(=O)[C@H](CC2CCCCC2)NC(=O)[C@H](CC(C)C)NC(=O)[C@H](CCCCN)NC1=O)[C@@H](C)O` (stereo partly specified) has a DC50 [2] of 5000 nM.

`CC1=CC(=O)[C@H]2/C(C=O)=C\C[C@H]3[C@@H]([C@@H](C)/C=C\C=C/C(=O)OCCCOC(=O)CC45CC6CC(CC(C6)C4)C5)CC[C@]3(C)C[C@H]12` gave a pIC50 (NCI/ADR-RES) of 6.02.

`CC1=CC(=O)[C@H]2/C(C=O)=C\C[C@H]3[C@@H]([C@@H](C)/C=C\C=C/C(=O)OCCOCCOC(=O)CC45CC6CC(CC(C6)C4)C5)CC[C@]3(C)C[C@H]12` gave a pIC50 (NCI/ADR-RES) of 6.06.

`CC1=CC(=O)[C@H]2/C(C=O)=C\C[C@H]3[C@@H]([C@@H](C)/C=C\C=C/C(=O)OCCCCCCCCOC(=O)CC45CC6CC(CC(C6)C4)C5)CC[C@]3(C)C[C@H]12` gave a pIC50 (NCI/ADR-RES) of 5.83.

With `CCc1cc2c(cc1N1CCN(CCCCC(=O)NCC3CC4C=CC3C4)CC1)C(C)(C)c1[nH]c3cc(C#N)ccc3c1C2=O` (stereo unspecified) the CL/F [3] was 41.4 mL/min/kg, the clearance [4] was 138 mL/min/kg and the bioavailability [5] was 8.6%. It also gave a half-life [6] of 25.2 min and a half-life [7] of 31.7 min.

With `CC1=C/C(=N\OC(=O)c2ccc(CNC(=O)CCc3cn(CCCCCCOCCOCCNC(=O)CC4C5CC6CC(C5)CC4C6)nn3)cc2C)C(C)=CC1=O` (stereo unspecified) the pIC50 [1] was 4.98.

With `CC1=C/C(=N/OC(=O)c2ccccc2C)C(C)=CC1=O` the pIC50 [1] was 5.85 and the pIC50 (HeLa) was 4.98.

`CC(C)C[C@H](NC(=O)[C@H](C)NC(=O)[C@H](C)NC(=O)[C@H](C)NC(=O)[C@H](C)NC(=O)[C@H](CC(C)C)NC(=O)[C@@H](N)CCCNC(=N)N)C(=O)N[C@@H](CC(C)C)C(=O)N1CCC[C@H]1C(=O)N1CCC[C@H]1C(=O)N[C@H](C(=O)N[C@@H](CCC(=O)O)C(=O)N[C@@H](CCC(N)=O)C(=O)N[C@@H](CC(=O)O)C(=O)N[C@@H](CC(C)C)C(=O)N[C@@]1(C)CCC/C=C\CCC[C@@](C)(C(=O)N[C@@H](Cc2ccc(O)cc2)C(N)=O)NC(=O)[C@H](CC2CCCCC2)NC(=O)[C@H](CC(C)C)NC(=O)[C@H](CCCCN)NC1=O)[C@@H](C)O` gave a DC50 [2] of 10000 nM.
